A value given as a limit tells only on which side of the number the result lay.

In one assay the test system is Resistant P. aeruginosa. Kind of assay: Synergy of inhibitors with imipenem against resistant P. aeruginosa. It counts as cell-based. The source says: (§1) Tables 2 and 3 show the effectiveness of inhibitory compounds of the invention in killing resistant bacterial strains with imipenem, a β-lactam antibiotic.
The subject of the next assay is Resistant A. baumannii. Kind of assay: Synergy of inhibitors with imipenem against resistant A. baumannii. It is filed as cell-based.
From the text: as §1

Assay [1] has as its target AmpC β-lactamase. The note with it: read-out: IC50 AmpC A. baumannii. The source says: Methods for testing the β-lactamase inhibitory bioactivity of compounds are well known in the art. For example, see T. Viswanantha, et al. (2008), “Assays for β-lactamase Activity and Inhibition,”, Methods in Molecular Medicine, 142: New Antibiotic Targets, Chapter 19, pp. 239-260, and references cited therein.

The next assay addresses OXA-40 β-lactamase (Acinetobacter baumannii, UniProt Q8RLA6). It counts as biochemical.
Assay [2] deals with T1, AmpC β-lactamase (Pseudomonas aeruginosa, UniProt P24735). Kind of assay: Inhibition of representative β-lactamases: AmpC P. aeruginosa in serum. It counts as biochemical.
Assay [3] has as its target T1, AmpC β-lactamase. Kind of assay: Inhibition of representative β-lactamases: AmpC P. aeruginosa. It is filed as biochemical.
A further assay addresses TEM-1 β-lactamase (Escherichia coli, UniProt P62593). Kind of assay: Inhibition of representative β-lactamases: TEM-1. The note with it: read-out: IC50 TEM-1 E. Coli. It counts as biochemical.

T1 sequence (P24735 27-397): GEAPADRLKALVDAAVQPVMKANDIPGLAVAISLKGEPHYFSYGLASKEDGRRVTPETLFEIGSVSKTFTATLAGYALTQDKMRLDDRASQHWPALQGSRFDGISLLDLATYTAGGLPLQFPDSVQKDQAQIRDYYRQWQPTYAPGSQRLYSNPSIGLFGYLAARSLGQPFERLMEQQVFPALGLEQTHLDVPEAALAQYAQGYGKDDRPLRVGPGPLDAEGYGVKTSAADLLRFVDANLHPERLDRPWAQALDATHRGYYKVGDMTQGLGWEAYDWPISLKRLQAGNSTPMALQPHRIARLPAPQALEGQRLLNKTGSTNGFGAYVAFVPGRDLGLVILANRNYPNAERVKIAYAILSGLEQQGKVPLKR
TEM-1 β-lactamase, sequence (P62593 24-286 limits assumed): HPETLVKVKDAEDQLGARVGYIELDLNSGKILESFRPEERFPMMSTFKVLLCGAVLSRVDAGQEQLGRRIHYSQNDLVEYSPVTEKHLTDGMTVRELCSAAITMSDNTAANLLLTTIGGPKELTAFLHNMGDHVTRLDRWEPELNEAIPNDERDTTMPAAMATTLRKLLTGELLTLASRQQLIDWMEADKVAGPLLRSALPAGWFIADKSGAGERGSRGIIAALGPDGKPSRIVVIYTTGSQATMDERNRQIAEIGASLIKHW
OXA-40 β-lactamase, sequence (Q8RLA6 22-275): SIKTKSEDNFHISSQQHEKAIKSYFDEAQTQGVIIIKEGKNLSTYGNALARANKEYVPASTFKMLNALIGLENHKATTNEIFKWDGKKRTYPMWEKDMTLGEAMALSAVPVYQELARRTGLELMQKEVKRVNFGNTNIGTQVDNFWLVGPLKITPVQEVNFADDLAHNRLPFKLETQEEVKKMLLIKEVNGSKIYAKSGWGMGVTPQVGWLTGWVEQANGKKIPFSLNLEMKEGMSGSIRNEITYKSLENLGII

Consider `C[C@@H](O)[C@H]1C(=O)N2C(C(=O)O)=C(SCCN=CN)C[C@H]12` [Imipenem, imipenem, reference compound], for which the MIC in the assay on Resistant P. aeruginosa (Pseudomonas aeruginosa, imipenem alone, no inhibitor) turned out to be 20 µg/mL; with Resistant A. baumannii (Acinetobacter baumannii, imipenem alone, no inhibitor), 256 µg/mL.
In the case of `C[C@]1(COC(=O)Cc2ccc(O)c(O)c2)[C@H](C(=O)O)N2C(=O)/C(=C/c3ccccn3)[C@H]2S1(=O)=O` [JDB/LN-1-255], the IC50 on AmpC β-lactamase [1] was determined as 4 nM; against OXA-40 β-lactamase, 11 nM; at AmpC β-lactamase [2], 82 nM; against AmpC β-lactamase [3], 6 nM; at TEM-1 β-lactamase, 0.03 nM. Also, the “Inhibitor concentration with imipenem at 0.0313 MIC” value in the assay with Resistant P. aeruginosa (imipenem 0.625 mg/L (0.0313 MIC)) and in the assay with Resistant A. baumannii (imipenem 8 mg/L (0.0313 MIC)) was over 100 µg/mL in each case. Further, the “Inhibitor concentration with imipenem at 0.0625 MIC” value in the assay on Resistant P. aeruginosa (imipenem 1.25 mg/L (0.0625 MIC)) and in the assay with Resistant A. baumannii (imipenem 16 mg/L (0.0625 MIC)) was 100 µg/mL throughout. In addition, the “Inhibitor concentration with imipenem at 0.125 MIC” value in the assay on Resistant P. aeruginosa (imipenem 2.5 mg/L (0.125 MIC)) and in the assay with Resistant A. baumannii (imipenem 32 mg/L (0.125 MIC)) was 50 µg/mL throughout. Also, the “Inhibitor concentration with imipenem at 0.25 MIC” value in the assay on Resistant P. aeruginosa (imipenem 5 mg/L (0.25 MIC)) and with Resistant A. baumannii (imipenem 64 mg/L (0.25 MIC)) was 25 µg/mL throughout. The “Inhibitor concentration with imipenem at 0.5 MIC” value in the assay on Resistant P. aeruginosa (imipenem 10 mg/L (0.5 MIC)) and with Resistant A. baumannii (imipenem 128 mg/L (0.5 MIC)) was 6.25 µg/mL throughout.

The record behind these values is patent US8575144B2, “Beta-lactamase inhibitory compounds” (Southern Methodist University, priority 2008, dated 2013).
